{"source": "patent US5462869A", "about": "“Human endothelin converting enzyme isolated from blood or placenta by hydrated density” (Nisshin Flour Milling Co., Ltd., priority 1991, dated 1995)", "assay_type_in_all_cases": "biochemical, human", "conditions_in_all_cases": "37° C. 30 minutes, pH 7.0, untreated enzyme as 100", "key": {"[1]": {"tested_on": "endothelin converting enzyme I", "assay": "Effect of inhibitors on activity of converting big endothelin-1 to endothelin-1, enzyme I", "method": "(§1) 10 μl of a 100 nmol/ml big endothelin-1 solution is added to 1 ml of an enzyme solution (10 mM trishydrochloric acid-0.15M sodium chloride buffer; pH 7.0), and the enzymatic reaction is carried out at 37° C. for 3 hours. After completion of the reaction, 10 μl of a 0.1M EDTA solution is added thereto to discontinue the reaction. Thereafter, the resultant endothelin-1 is assayed according to the sandwich-EIA method. An enzymatic activity of converting 1 pmol of big endothelin-1 to endothelin-1 per hour under the above-described reaction conditions is termed 1 U (unit).\n(§2) A sample and a predetermined concentration of endothelin standard solution are respectively applied to a 96-hole microplate on which ani-endothelin monoclonal antibody is immobilized to thereby cause the […]. […] Then, biotin-labeled anti-endothelin polyclonal antibody and peroxydase-labeled avidin are applied thereto for reaction. After washing the microplate, activity of bound peroxydase is assayed. Endothelin concentration in the sample is assayed based on the calibration curve drawn by using endothelin standard solutions having predetermined concentrations of endothelin.\n(§3) The enzymes of the invention were tested for the effects of various inhibitors against the activity of converting big endothelin-1 to endothelin-1.\n(§4) Each of the enzymes is incubated in 100 μl of a reaction solution (10 mM tris-hydrochloric acid-0.15M sodium chloride buffer; pH 7.0) containing various inhibitors at 37° C. for 30 minutes, and the residual enzymatic activity is measured in the above-described manner."}, "[2]": {"tested_on": "endothelin converting enzyme II", "assay": "Effect of inhibitors on activity of converting big endothelin-1 to endothelin-1, enzyme II", "method": "as §1, §2, §3, §4"}, "[3]": {"tested_on": "endothelin converting enzyme III", "assay": "Effect of inhibitors on activity of converting big endothelin-1 to endothelin-1, enzyme III", "method": "as §1, §2, §3, §4"}, "[4]": {"tested_on": "endothelin converting enzyme IV", "assay": "Effect of inhibitors on activity of converting big endothelin-1 to endothelin-1, enzyme IV", "method": "as §1, §2, §3, §4"}}, "note": "Square brackets hold non-standard residues; d marks the D form. Peptide text beside a SMILES is read from it. * marks the point of attachment. Sta = CC(C)C[C@H](N)[C@@H](O)CC(=O)O; Isovaleryl = CC(C)CC(=O)*", "data": [{"smiles": "c1cnc2c(c1)ccc1cccnc12", "note": "[1,10-Phenanthroline]", "values": [{"measurement": "Relative Activity (%)", "setting": "[1]; inhibitor 0.5 mM", "result": 10, "unit": "%"}, {"measurement": "Relative Activity (%)", "setting": "[2]; inhibitor 0.5 mM", "result": 5, "unit": "%"}, {"measurement": "Relative Activity (%)", "setting": "[3]; inhibitor 0.5 mM", "result": 7, "unit": "%"}, {"measurement": "Relative Activity (%)", "setting": "[4]; inhibitor 0.5 mM", "result": 8, "unit": "%"}]}, {"smiles": "CC(C)CC(=O)N[C@H](C(=O)N[C@H](C(=O)N[C@@H](CC(C)C)[C@@H](O)CC(=O)N[C@@H](C)C(=O)N[C@@H](CC(C)C)[C@@H](O)CC(=O)O)C(C)C)C(C)C", "note": "[Pepstatin A] (Isovaleryl-VV[Sta]A[Sta]-OH)", "values": [{"measurement": "Relative Activity (%)", "setting": "[1]; inhibitor 0.01 mM", "result": 99, "unit": "%"}, {"measurement": "Relative Activity (%)", "setting": "[2]; inhibitor 0.01 mM", "result": 100, "unit": "%"}, {"measurement": "Relative Activity (%)", "setting": "[3]; inhibitor 0.01 mM", "result": 99, "unit": "%"}, {"measurement": "Relative Activity (%)", "setting": "[4]; inhibitor 0.01 mM", "result": 97, "unit": "%"}]}, {"smiles": "CC(C)C[C@H](NP(=O)(O)O[C@@H]1O[C@@H](C)[C@H](O)[C@@H](O)[C@H]1O)C(=O)N[C@@H](Cc1c[nH]c2ccccc12)C(=O)O", "note": "[Phosphoramidon]", "values": [{"measurement": "Relative Activity (%)", "setting": "[1]; inhibitor 0.1 mM", "result": 1, "unit": "%"}, {"measurement": "Relative Activity (%)", "setting": "[2]; inhibitor 0.1 mM", "result": 2, "unit": "%"}, {"measurement": "Relative Activity (%)", "setting": "[3]; inhibitor 0.1 mM", "result": 1, "unit": "%"}, {"measurement": "Relative Activity (%)", "setting": "[4]; inhibitor 0.1 mM", "result": 3, "unit": "%"}]}]}
